Assay results published in US20240132522A1, “HETEROCYCLIC COMPOUNDS AND METHODS OF USE THEREOF” (1cBio, Inc., priority 2022, published 2024).
Structures can show the parent of a compound that is named as a salt.

Molecular target: recombinant human PARP1 (Homo sapiens, UniProt P09874)
Test: PARP1 fluorescence polarization binding assay
Settings: binding IC50, GST-tagged PARP1 20 nM, PARPi-FL probe 3 nM, 4 h at RT
Experimental: In some embodiments, the biological assay is described in the Examples herein. In some embodiments, the biological assay measures PARP-1 binding by way of fluorescence polarization measurements. In some embodiments, binding of a test compound to recombinant human PARP-1 reduces the amount of binding of a fluorescent probe, and consequently reduces the detected level of fluorescence polarization. In some test compound stock solutions are prepared in a solvent, e.g., DMSO, and are serially diluted into a range of concentrations, e.g., 15 concentrations, 14 concentrations, 13 concentrations, 12 concentrations, 11 concentrations, 10 concentrations, 9 concentrations, 8 concentrations, 7 concentrations, 6 concentrations, or 5 concentrations, by a dilution factor, e.g., a 10-fold dilution factor, a 9-fold dilution factor, an 8-fold dilution factor, a 7-fold dilution factor, a 6-fold dilution factor, a 5-fold dilution factor, a 4-fold dilution factor, a 3-fold dilution factor, or a 2-fold dilution factor. In some embodiments, the serial dilutions, e.g., 100 nL of serial dilution, 90 nL of serial dilution, 80 nL of serial dilution, 70 nL of serial dilution, 60 nL of serial dilution, 50 nL of serial dilution, 30 nL of serial dilution, 20 nL of serial dilution, or 10 nL of serial dilution, are added to a multi-welled plate, e.g., a 1536-well plate, a 384-well plate, or a 96-well plate. In some embodiments, PARP-1, e.g., GST-tagged PARP-1, is diluted in assay buffer, e.g., 50 μL of assay buffer, 40 μL of assay buffer, e.g., 30 μL of assay buffer, 20 μL of assay buffer, 10 μL of assay buffer, or 5 μL of assay buffer, and is added to the plate. In some embodiments, the plate is centrifuged, e.g., at 1000 rpm for 1 min, and incubated, e.g., incubated for 30 minutes at room temperature (RT). In some embodiments, a fluorescent probe, e.g., 10 μL of 6 nM PARPi-FL (TOCRIS, Cat #6461), is diluted in an assay buffer and is added to the plate. In some embodiments, the final concentrations of PARP-1 and fluorescent probe are 20 nM and 3 nM, respectively, in a total volume of 20 μL. In some embodiments, the plate is centrifuged, e.g., at 1000 rpm for 1 minute, and the assay plate is incubated, e.g., for 4 h at RT. In some embodiments, the samples in each well are read using a plate reader, e.g., an Envision instrument using excitation=480 nm, and emission wavelength=FITC FP-P pol 535 nm & FITC FP-S pol 535 nm). In some embodiments, percent inhibition is calculated from mP values using Inhibition (%)=[1−(mPc−mPL)/(mPH−mPL)]×100%, where mPc, mPL, and mPH are the mP values of test compound, Low controls, and High controls, respectively. In some embodiments, binding IC50 values are calculated using XLFit (equation 201: y=A+((B−A)/(1+((x/C)^D))), where A=bottom, B=top, C=IC50, and D=slope) with a floating top and bottom for curves.
Compounds of the present disclosure were tested in a PARP1 fluorescence polarization binding assay at Pharmaron (Beijing, P.R. China). In this biochemical assay, binding of test compound to recombinant human PARP1 reduces the amount of binding of a fluorescent probe, and consequently reduces the detected level of fluorescence polarization. Test compound stock solutions were prepared in DMSO and then serially diluted into 10 concentrations by 3-fold dilution in a 384-well plate using a TECAN EVO200. 60 nL of each dilution was transferred to the plate using an Echo550 (Labcyte), and then 10 μL 40 nM GST-tagged PARP1 (BPS Bioscience, Cat #80501), diluted in assay buffer (50 mM Tris pH 8.0, 0.001% Triton X-100, 10 mM MgCl2, 150 mM NaCl), was added to the plate. After a centrifugation at 1000 rpm for 1 min, the assay plate was incubated for 30 min at RT. 10 μL 6 nM PARPi-FL (TOCRIS, Cat #6461), diluted using assay buffer, was then added to the plate. The final concentrations of PARP1 and PARPi-FL were 20 nM and 3 nM, respectively, in a total volume of 20 μL. […]

Chain of recombinant human PARP1 (P09874 whole entry): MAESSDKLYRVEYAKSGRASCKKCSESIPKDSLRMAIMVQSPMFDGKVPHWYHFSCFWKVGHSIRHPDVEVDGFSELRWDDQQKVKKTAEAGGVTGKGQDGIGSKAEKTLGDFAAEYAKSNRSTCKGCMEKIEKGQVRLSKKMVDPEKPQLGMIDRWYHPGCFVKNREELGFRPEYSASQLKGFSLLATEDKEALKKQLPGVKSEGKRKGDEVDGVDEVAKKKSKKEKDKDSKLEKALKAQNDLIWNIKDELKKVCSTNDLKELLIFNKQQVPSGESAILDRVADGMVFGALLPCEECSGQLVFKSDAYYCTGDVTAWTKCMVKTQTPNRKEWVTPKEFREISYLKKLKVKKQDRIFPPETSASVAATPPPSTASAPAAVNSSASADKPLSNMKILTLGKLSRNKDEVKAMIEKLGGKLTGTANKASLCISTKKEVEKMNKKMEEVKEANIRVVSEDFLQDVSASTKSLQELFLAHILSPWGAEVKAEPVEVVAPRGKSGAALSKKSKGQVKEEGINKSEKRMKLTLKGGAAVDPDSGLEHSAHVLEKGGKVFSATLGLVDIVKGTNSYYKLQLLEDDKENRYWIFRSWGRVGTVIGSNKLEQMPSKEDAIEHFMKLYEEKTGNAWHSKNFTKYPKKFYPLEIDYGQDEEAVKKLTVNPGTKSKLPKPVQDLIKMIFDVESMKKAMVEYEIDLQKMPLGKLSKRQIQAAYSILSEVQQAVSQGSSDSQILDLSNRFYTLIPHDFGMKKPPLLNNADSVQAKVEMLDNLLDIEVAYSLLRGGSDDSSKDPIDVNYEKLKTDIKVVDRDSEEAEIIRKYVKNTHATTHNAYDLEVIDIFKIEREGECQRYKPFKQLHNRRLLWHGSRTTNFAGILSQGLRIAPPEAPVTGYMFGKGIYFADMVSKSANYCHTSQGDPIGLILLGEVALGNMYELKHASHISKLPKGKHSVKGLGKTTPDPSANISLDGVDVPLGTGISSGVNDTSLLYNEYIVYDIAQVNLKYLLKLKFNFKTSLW

First: CCc1cc2ncc(CN3CC4CN(c5ccc(C(=O)NC)nc5)CC4C3)cc2[nH]c1=O (stereo not shown) [Compound No. 7, 5-(5-((7-ethyl-6-oxo-5,6-dihydro-1,5-naphthyridin-3-yl)methyl)hexahydropyrrolo[3,4-c]pyrrol-2(1H)-yl)-N-methylpicolinamide]
Second: CCc1cc2ncc(CN3CC4(C3)CN(c3ccc(C(=O)NC)nc3)C4)cc2[nH]c1=O [Compound No. 9, 5-(6-((7-ethyl-6-oxo-5,6-dihydro-1,5-naphthyridin-3-yl)methyl)-2,6-diazaspiro[3.3]heptan-2-yl)-N-methylpicolinamide formate]
The IC50 of the first is higher: 0.1 to 3 µM for the first, less than 0.1 µM for the second.

First: CCc1cc2ncc(CNC3CC(Nc4ccc(C(=O)NC)nc4)C3)cc2[nH]c1=O (stereo not shown) [Compound No. 29, 5-((3-(((7-ethyl-6-oxo-5,6-dihydro-1,5-naphthyridin-3-yl)methyl)amino)cyclobutyl)amino)-N-methylpicolinamide]
Second: CCc1cc2ncc(CN3CCCN(c4ccc(C(=O)NC)nc4)CC3)cc2[nH]c1=O [Compound No. 6, 5-(4-((7-ethyl-6-oxo-5H-1,5-naphthyridin-3-yl)methyl)-1,4-diazepan-1-yl)-N-methylpyridine-2-carboxamide]
The IC50 of the first is higher: 0.1 to 3 µM for the first, less than 0.1 µM for the second. The second is the more potent here.
